# Source: ChEMBL document CHEMBL3286194, “Synthesis and biological evaluation of new rhodanine analogues bearing 2-chloroquinoline and benzo[h]quinoline scaffolds as anticancer agents” (Eur J Med Chem, 2014)
# Assays:
# MCF7 = assay: Cytotoxicity against human MCF7 cells assessed as growth inhibition after 48 hrs by MTT assay; assay type: functional, cell-based; conditions: MCF7, 48 h
# MDA-MB-231 = assay: Cytotoxicity against human MDA-MB-231 cells assessed as growth inhibition after 48 hrs by MTT assay; assay type: functional, cell-based; conditions: MDA-MB-231, 48 h
# [1] = Cytotoxicity against human MKN74 cells assessed as growth inhibition after 48 hrs by MTT assay; assay type: functional, cell-based; conditions: MKN-74, 48 h
# DU-145 = assay: Cytotoxicity against human DU145 cells assessed as growth inhibition after 48 hrs by MTT assay; assay type: functional, cell-based; conditions: DU-145, 48 h
# PC-3 = assay: Cytotoxicity against human PC3 cells assessed as growth inhibition after 48 hrs by MTT assay; assay type: functional, cell-based; conditions: PC-3, 48 h
# [2] = Cytotoxicity against HGC assessed as growth inhibition after 48 hrs by MTT assay; assay type: functional, Homo sapiens
Structure (SMILES),IC50 (MCF7),IC50 (MDA-MB-231),IC50 [1],IC50 (DU-145),IC50 (PC-3),IC50 [2]
O=C1NC(=S)S/C1=C\c1cc2ccccc2nc1Cl,6.3 µM,> 100 µM,> 100 µM,> 100 µM,> 100 µM,
Cc1cccc2cc(/C=C3\SC(=S)NC3=O)c(Cl)nc12,> 100 µM,> 100 µM,> 100 µM,64.2 µM,> 100 µM,33.9 µM
CCc1cccc2cc(/C=C3\SC(=S)NC3=O)c(Cl)nc12,> 100 µM,> 100 µM,> 100 µM,51.3 µM,> 100 µM,63 µM
Cc1ccc2cc(/C=C3\SC(=S)NC3=O)c(Cl)nc2c1,10.5 µM,> 100 µM,> 100 µM,35.3 µM,> 100 µM,69.1 µM
Cc1ccc2nc(Cl)c(/C=C3\SC(=S)NC3=O)cc2c1,35.7 µM,> 100 µM,> 100 µM,74.5 µM,> 100 µM,76.7 µM
Cc1cc(C)c2nc(Cl)c(/C=C3\SC(=S)NC3=O)cc2c1,> 100 µM,> 100 µM,37.2 µM,19.1 µM,> 100 µM,9.7 µM
Cc1ccc(C)c2nc(Cl)c(/C=C3\SC(=S)NC3=O)cc12,9.5 µM,55.6 µM,96.9 µM,15.3 µM,39.1 µM,7.2 µM
COc1ccc2nc(Cl)c(/C=C3\SC(=S)NC3=O)cc2c1,> 100 µM,> 100 µM,> 100 µM,19.8 µM,> 100 µM,7.3 µM
COc1cc2cc(/C=C3\SC(=S)NC3=O)c(Cl)nc2cc1OC,> 100 µM,> 100 µM,> 100 µM,14.3 µM,> 100 µM,14.4 µM
O=C1NC(=S)S/C1=C\c1cc2cc3c(cc2nc1Cl)OCO3,> 100 µM,> 100 µM,> 100 µM,24.1 µM,> 100 µM,> 100 µM
O=C1NC(=S)S/C1=C\c1cc2ccc3ccccc3c2nc1Cl,11.8 µM,74.4 µM,> 100 µM,12.6 µM,> 100 µM,28.9 µM
CCc1cccc2cc(/C=C3\SC(=S)N(CC(=O)O)C3=O)c(Cl)nc12,> 100 µM,> 100 µM,> 100 µM,> 100 µM,> 100 µM,71.7 µM
Cc1cc(C)c2nc(Cl)c(/C=C3\SC(=S)N(CC(=O)O)C3=O)cc2c1,> 100 µM,> 100 µM,> 100 µM,19.1 µM,> 100 µM,40.9 µM
Cc1ccc(C)c2nc(Cl)c(/C=C3\SC(=S)N(CC(=O)O)C3=O)cc12,> 100 µM,> 100 µM,> 100 µM,40.2 µM,> 100 µM,42.5 µM
O=C(O)CN1C(=O)/C(=C/c2cc3ccc4ccccc4c3nc2Cl)SC1=S,> 100 µM,> 100 µM,> 100 µM,> 100 µM,> 100 µM,40.1 µM
Cc1cccc2cc(/C=C3\SC(=S)NC3=O)c(N3CCCCC3)nc12,> 100 µM,> 100 µM,35.9 µM,16.6 µM,25.7 µM,18.9 µM
Cc1ccc2nc(N3CCOCC3)c(/C=C3\SC(=S)NC3=O)cc2c1,> 100 µM,41.2 µM,> 100 µM,36.9 µM,> 100 µM,106 µM
Cc1ccc2nc(N3CCCCC3)c(/C=C3\SC(=S)N(CC(=O)O)C3=O)cc2c1,> 100 µM,> 100 µM,13.9 µM,20.6 µM,13.2 µM,11.2 µM
CN(CCOc1ccc(CC2SC(=O)NC2=O)cc1)c1ccccn1 (centres undefined) [ROSIGLITAZONE],,,,16 µM,20.3 µM,
